Columns and labels:
[1] = Evaluation of oral bioavailability by mouse bioassay; assay type: in vivo; conditions: 10 mg/kg oral, female Balb/C mice, serum 15 minutes after administration, read-out: Blood level
Experimental: A test compound was suspended or dissolved in a proper administration medium to give a concentration of 1 mg/ml. To 7 to 9 week old female Balb/C mice, 10 mg/kg of the resulting suspension or solution was orally administered. Fifteen minutes after the administration, blood was collected from the postcava under anesthesia with ether and the serum was separated from it. The concentration of each test compound was determined by estimating the serum level from a calibration curve obtained with VCAM-1/VLA-4 inhibitory activity as an index or measuring the concentration by using LC/MS/MS.

[2] = target: T1, integrins haα4 and β1 (VLA-4) expressed on CHO cells (Homo sapiens, UniProt P05556+P13612); assay: In vitro Evaluation Test (1): binding of Eu3+-hVCAM-1 D1D7-IgG to CHO cells expressing integrins α4 and β1; conditions: inhibition of Eu3+-hVCAM-1 D1D7-IgG binding to CHO cells expressing α4β1; Ki calculated from IC50
T1 construct: expressed in transfected cells; host or cells: CHO cells
Method in brief: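 CHO cells transduced with human α4 and β1 were grown for 2 days. They were incubated 1 h at room temperature with Eu3+-hVCAM-1 D1D7-IgG (diluted to 2 nM before addition) and compound, with or without 6% HSA, in HEPES pH 7.5 containing Ca2+, Mg2+ and 4 mM Mn2+. Time-resolved fluorescence gave IC50; Ki used a Scatchard-derived Kd (0.06–20 nM).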

T1 sequence (P13612 34-1032): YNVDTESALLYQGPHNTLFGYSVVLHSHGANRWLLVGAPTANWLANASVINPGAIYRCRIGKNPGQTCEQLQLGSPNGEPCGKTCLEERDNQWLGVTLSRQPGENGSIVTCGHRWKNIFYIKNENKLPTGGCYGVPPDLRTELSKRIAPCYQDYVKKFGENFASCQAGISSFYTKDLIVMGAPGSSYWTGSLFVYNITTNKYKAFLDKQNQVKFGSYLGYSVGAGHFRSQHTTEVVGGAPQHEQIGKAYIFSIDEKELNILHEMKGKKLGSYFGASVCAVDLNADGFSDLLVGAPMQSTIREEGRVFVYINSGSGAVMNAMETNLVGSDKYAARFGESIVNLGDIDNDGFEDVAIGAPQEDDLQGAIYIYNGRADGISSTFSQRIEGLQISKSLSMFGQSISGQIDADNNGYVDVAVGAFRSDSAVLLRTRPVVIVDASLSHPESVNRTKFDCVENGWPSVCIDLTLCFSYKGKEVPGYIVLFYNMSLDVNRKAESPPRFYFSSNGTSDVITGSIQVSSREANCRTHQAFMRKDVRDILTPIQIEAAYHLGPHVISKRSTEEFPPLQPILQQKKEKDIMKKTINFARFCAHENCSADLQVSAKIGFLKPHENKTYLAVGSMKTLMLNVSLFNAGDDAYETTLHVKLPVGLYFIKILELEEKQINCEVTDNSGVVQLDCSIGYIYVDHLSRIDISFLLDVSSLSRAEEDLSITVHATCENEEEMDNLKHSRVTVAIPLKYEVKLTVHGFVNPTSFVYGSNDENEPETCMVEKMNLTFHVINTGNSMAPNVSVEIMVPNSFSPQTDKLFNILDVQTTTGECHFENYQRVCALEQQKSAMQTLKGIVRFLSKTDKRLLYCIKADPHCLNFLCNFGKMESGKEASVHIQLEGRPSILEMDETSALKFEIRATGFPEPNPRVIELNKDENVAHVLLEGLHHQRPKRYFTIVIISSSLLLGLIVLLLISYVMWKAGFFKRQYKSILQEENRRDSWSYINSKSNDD
T1 sequence (P05556 21-798): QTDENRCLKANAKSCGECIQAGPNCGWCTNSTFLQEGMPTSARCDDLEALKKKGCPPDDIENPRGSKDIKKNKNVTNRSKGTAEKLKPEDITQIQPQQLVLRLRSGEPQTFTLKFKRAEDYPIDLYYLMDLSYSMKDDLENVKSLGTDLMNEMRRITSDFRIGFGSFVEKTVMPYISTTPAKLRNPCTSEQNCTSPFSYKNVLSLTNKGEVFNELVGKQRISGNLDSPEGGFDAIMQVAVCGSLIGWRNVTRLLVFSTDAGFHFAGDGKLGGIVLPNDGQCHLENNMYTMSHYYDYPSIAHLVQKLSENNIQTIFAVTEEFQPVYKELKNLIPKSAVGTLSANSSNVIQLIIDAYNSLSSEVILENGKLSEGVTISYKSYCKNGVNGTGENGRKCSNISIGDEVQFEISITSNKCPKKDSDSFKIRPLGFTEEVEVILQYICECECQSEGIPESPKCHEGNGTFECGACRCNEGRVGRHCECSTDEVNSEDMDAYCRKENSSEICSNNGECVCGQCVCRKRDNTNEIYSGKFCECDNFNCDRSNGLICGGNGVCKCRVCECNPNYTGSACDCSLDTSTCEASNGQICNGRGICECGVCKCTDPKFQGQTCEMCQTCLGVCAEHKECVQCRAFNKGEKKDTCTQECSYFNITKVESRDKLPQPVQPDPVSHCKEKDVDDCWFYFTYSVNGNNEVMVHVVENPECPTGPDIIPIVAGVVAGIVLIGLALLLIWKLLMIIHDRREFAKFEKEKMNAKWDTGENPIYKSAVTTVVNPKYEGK

Row | SMILES | concentration at 15 min [1] [ng/mL] | Ki [2] [nM]
1 | O=C(O)C1CCC(OC[C@@H]2C[C@H](F)CN2C(=O)Cc2ccc3nc(Nc4ccccc4Cl)oc3c2)CC1 (single isomer, unassigned) [24 (Isomer A)] | 2180 | 14
2 | O=C(O)C1CCC(OC[C@@H]2C[C@H](F)CN2C(=O)Cc2ccc3nc(Nc4ccccc4Br)oc3c2)CC1 (single isomer, unassigned) [25 (Isomer A)] | 1090 | 18
3 | O=C(O)C1CCC(OC[C@@H]2C[C@H](F)CN2C(=O)Cc2ccc(NC(=O)N3CCc4ccccc43)c(Cl)c2)CC1 (stereo partly drawn) [Example 36, 4-(1-(3-Chloro-4-(1-indolinylcarbonylamino)phenylacetyl)-(4S)-fluoro-(2S)-pyrrolidinylmethoxy)cyclohexanecarboxylic acid] | 1100 | 1.5
4 | O=C(O)C1CCC(OC[C@@H]2C[C@H](F)CN2C(=O)Cc2ccc3nc(Nc4ccccc4Cl)oc3c2F)CC1 (stereo partly drawn) [Example 37, 4-(1-(2-(2-Chlorophenyl)amino-7-fluoro-6-benzoxazolylacetyl)-(4S)-fluoro-(2S)-pyrrolidinylmethoxy)cyclohexanecarboxylic acid] | 3690 | 6.9
5 | Cn1cc(C(=O)Nc2ccc(CC(=O)N3C[C@@H](F)C[C@H]3COC3CCC(C(=O)O)CC3)cc2Cl)c2ccccc21 (stereo partly drawn) [Example 39, 4-(1-(3-Chloro-4-(1-methyl-3-indolylcarbonylamino)phenylacetyl)-(4S)-fluoro-(2S)-pyrrolidinylmethoxy)cyclohexanecarboxylic acid] | 5160 | 2.1
6 | Cc1ccc(Cl)cc1Nc1nc2ccc(CC(=O)N3C[C@@H](F)C[C@H]3CO[C@H]3CC[C@H](C(=O)O)CC3)c(F)c2o1 [Example 43, trans-4-(1-((2-(5-Chloro-2-methylphenylamino)-7-fluoro-6-benzoxazolyl)acetyl)-(4S)-fluoro-(2S)-pyrrolidinylmethoxy)cyclohexanecarboxylic acid] | 1190 | 6
7 | Cc1ccc(F)cc1Nc1nc2ccc(CC(=O)N3C[C@@H](F)C[C@H]3CO[C@H]3CC[C@H](C(=O)O)CC3)c(F)c2o1 [Example 44, trans-4-(1-((2-(5-Fluoro-2-methylphenylamino)-7-fluoro-6-benzoxazolyl)acetyl)-(4S)-fluoro-(2S)-pyrrolidinylmethoxy)cyclohexanecarboxylic acid] | 912 | 2
8 | O=C(Cc1ccc(Nc2nc3ccccc3o2)c(Cl)c1)N1C[C@@H](F)C[C@H]1CO[C@H]1CC[C@H](C(=O)O)CC1 [Example 49, trans-4-(1-(4-(2-benzoxazolyl)amino-3-chlorophenylacetyl)-(4S)-fluoro-(2S)-pyrrolidinylmethoxy)cyclohexanecarboxylic acid] | 508 | 4.4
9 | O=C(Cc1cc(Cl)c(Nc2nc3ccccc3o2)cc1F)N1C[C@@H](F)C[C@H]1CO[C@H]1CC[C@H](C(=O)O)CC1 [Example 55, trans-4-(1-(4-(2-Benzoxazolyl)amino-5-chloro-2-fluorophenylacetyl)-(4S)-fluoro-(2S)-pyrrolidinylmethoxy)cyclohexanecarboxylic acid] | 2030 | 8.5
10 | O=C(Cc1cc(Cl)c(Nc2nc3ccccc3s2)cc1F)N1C[C@@H](F)C[C@H]1CO[C@H]1CC[C@H](C(=O)O)CC1 [Example 61, trans-4-(1-(4-(2-Benzothiazolyl)amino-5-chloro-2-fluorophenylacetyl)-(4S)-fluoro-(2S)-pyrrolidinylmethoxy)cyclohexanecarboxylic acid] | 3320 | 2.3
11 | O=C(Cc1ccc(Nc2nc3cc(F)ccc3s2)c(Cl)c1)N1C[C@@H](F)C[C@H]1CO[C@H]1CC[C@H](C(=O)O)CC1 [Example 62, trans-4-(1-(3-Chloro-4-(5-fluoro-2-benzothiazolyl)aminophenylacetyl)-(4S)-fluoro-(2)-pyrrolidinylmethoxy)cyclohexanecarboxylic acid] | 3200 | 3.4
12 | O=C(Cc1cc(Cl)c(Nc2nc3cc(F)ccc3s2)cc1F)N1C[C@@H](F)C[C@H]1CO[C@H]1CC[C@H](C(=O)O)CC1 [Example 63, trans-4-(1-(5-Chloro-4-(5-fluoro-2-benzothiazolyl)amino-2-fluorophenylacetyl)-(4S)-fluoro-(2S)-pyrrolidinylmethoxy)cyclohexanecarboxylic acid] | 8550 | 3.1
13 | CC(=O)N(C)[C@H]1C[C@@H](CO[C@H]2CC[C@H](C(=O)O)CC2)N(C(=O)Cc2cc(Cl)c(NC(=O)c3cn(C)c4ccccc34)cc2F)C1 [Example 142, trans-4-(1-((5-Chloro-2-fluoro-4-(1-methyl-3-indolylcarbonylamino)phenyl)acetyl)-(4S)-(N-methylacetamido)-(2S)-pyrrolidinylmethoxy)-1-cyclohexanecarboxylic acid] | – | 18
14 | C[C@@H](CO[C@H]1CC[C@H](C(=O)O)CC1)N(C)C(=O)Cc1cc(Cl)c(NC(=O)c2cn(C)c3ccccc23)cc1F [Example 144, trans-4-((2S)-((5-Chloro-2-fluoro-4-(1-methyl-3-indolylcarbonylamino)phenyl)-N-methylacetamido)-1-propoxy)-1-cyclohexanecarboxylic acid] | – | 48
15 | Cc1ccc(F)cc1Nc1nc2ccc(CC(=O)N(C)[C@@H](C)CO[C@H]3CC[C@H](C(=O)O)CC3)c(F)c2o1 [Example 145, trans-4-((2S)-((7-Fluoro-2-((5-fluoro-2-methylphenyl)amino)-6-benzoxazolyl)-N-methylacetamido)-1-propoxy)-1-cyclohexanecarboxylic acid] | – | 18
16 | Cc1ccc(F)cc1Nc1nc2ccc(CC(=O)N3C[C@@H](F)C[C@H]3COc3ccc(C(=O)O)cc3)cc2o1 [Example 146, 4-(1-((2-(5-Fluoro-2-methylphenylamino)-6-benzoxazolyl)acetyl)-(4S)-fluoro-(2S)-pyrrolidinylmethoxy)benzoic acid] | – | 21
17 | Cn1cc(C(=O)Nc2ccc(CC(=O)N3C[C@@H](F)C[C@H]3COc3ccc(C(=O)O)cc3)cc2Cl)c2ccccc21 [Example 147, 4-(1-((3-Chloro-4-((1-methyl-3-indolylcarbonyl)amino)phenyl)acetyl)-(4S)-fluoro-(2S)-pyrrolidinylmethoxy)benzoic acid] | – | 40
18 | Cn1cc(C(=O)Nc2ccc(CC(=O)N3C[C@@H](F)C[C@H]3COc3ccc(C(=O)O)cn3)cc2Cl)c2ccccc21 [Example 150, 6-(1-(3-Chloro-4-(1-methyl-3-indolyl)carbonylaminophenylacetyl)-(4S)-fluoro-(2S)-pyrrolidinylmethoxy)nicotinic acid] | – | 10
19 | Cc1ccccc1Nc1nc2ccc(CC(=O)N3CC=C[C@H]3COc3ccc(C(=O)O)cc3)cc2o1 [Example 151, 4-(3,4-Dehydro-1-((2-(2-methylphenylamino)-6-benzoxazolyl)acetyl)-(2S)-pyrrolidinylmethoxy)benzoic acid] | – | 37
20 | COC[C@@H]1C[C@@H](O[C@H]2CC[C@H](C(=O)O)CC2)CN1C(=O)Cc1ccc2nc(Nc3cc(F)ccc3C)oc2c1F [Example 156, trans-4-(1-((2-(5-Fluoro-2-methylphenylamino)-7-fluoro-6-benzoxazolyl)acetyl)-(2S)-methoxymethyl-(4R)-pyrrolidinyloxy)cyclohexanecarboxylic acid] | – | 43
21 | COC[C@@H]1C[C@@H](Oc2ccc(C(=O)O)cc2)CN1C(=O)Cc1ccc2nc(Nc3cc(F)ccc3C)oc2c1F [Example 159, 4-(1-((2-(5-Fluoro-2-methylphenylamino)-7-fluoro-6-benzoxazolyl)acetyl)-(2S)-methoxymethyl-(4R)-pyrrolidinyloxy)benzoic acid] | – | 47
22 | Cc1ccc(F)cc1Nc1nc2ccc(CC(=O)N3CC[C@@H](O[C@H]4CC[C@H](C(=O)O)CC4)C3)c(F)c2o1 [Example 160, 4-(1-(2-(5-Fluoro-2-methylphenylamino)-7-fluoro-6-benzoxazolylacetyl)-(3R)-pyrrolidinyloxy)cyclohexanecarboxylic acid] | – | 61
23 | Cn1cc(C(=O)Nc2cc(F)c(CC(=O)N3CC[C@@H](CO[C@H]4CC[C@H](C(=O)O)CC4)C3)cc2Cl)c2ccccc21 [Example 163, trans-4-(1-(5-Chloro-2-fluoro-4-(1-methyl-3-indolyl)carbonylaminophenylacetyl)-(3R)-pyrrolidinylmethyloxy)cyclohexanecarboxylic acid] | – | 39
24 | COC[C@@H]1CC[C@@H](CO[C@H]2CC[C@H](C(=O)O)CC2)N1C(=O)Cc1ccc2nc(Nc3cc(F)ccc3C)oc2c1F [Example 167, trans-4-(1-((2-(5-Fluoro-2-methylphenylamino)-7-fluoro-6-benzoxazolyl)acetyl)-(5S)-methoxymethyl-(2S)-pyrrolidinylmethoxy)cyclohexanecarboxylic acid] | – | 0.87
25 | COC[C@@H]1CC[C@@H](CO[C@H]2CC[C@H](C(=O)O)CC2)N1C(=O)Cc1cc(Cl)c(NC(=O)c2nn(C)c3ccccc23)cc1F [Example 168, trans-4-(1-((5-Chloro-2-fluoro-4-((1-methyl-3-indazolyl)carbonyl)aminophenyl)acetyl)-(5S)-methoxymethyl-(2S)-pyrrolidinylmethoxy)cyclohexanecarboxylic acid] | – | 59
